Source: the supplement of paper PMC10307832

Compound: CC1=C(C(=NN1)C)CC2=C(C3=C(S2)N(C(=O)N(C3=O)C)CC(C)C)C(=O)N4C[C@@H](CO4)O + CCNC(=O)c1noc(-c2cc(C(C)C)c(O)cc2O)c1-c1ccc(CN2CCOCC2)cc1 [Luminespib] (partner 0.01 µM)
Test: relative viability (nuclei count vs DMSO), 5 days (fraction); higher = more cells survive
Details: first compound 0.25 µM
Summary of the method: (§1)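 After 5 days of treatment, lung cancer cells in 1536-well plates were fixed and stained in a single step (final 0.05% Triton X-100, 1% formaldehyde, 1 ug/ml Hoechst) and their nuclei counted on 4× images. Treatment had been applied by pin tool the day after seeding as one drug alone or as a fixed anchor-drug dose with five library-drug doses (not always all listed) in √10 steps. Relative viability is the nuclei count of treated wells divided by that of vehicle wells, and values are medians of duplicate plates.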

Row | Cell Line | relative viability
1 | PC-14 | 0.196
2 | EKVX | 0.928

Compound: Cc1ccccc1C(C(=O)NC1CCCCC1)N(C(=O)Cn1ccnc1C)c1cccc(F)c1 [IDH-C35] + Cc1cc(Nc2cc(N3CCN(C)CC3)nc(Sc3ccc(NC(=O)C4CC4)cc3)n2)n[nH]1 [Tozasertib] (partner 0.1 µM)
Test: as above
Details: first compound 0.08 µM
Summary of the method: as §1

Row | Cell Line | relative viability
3 | BEN | 0.5
4 | HARA | 0.0971
5 | NCI-H322M | 0.46
6 | LCLC-97TM1 | 0.397
7 | NCI-H2009 | 0.69
8 | A-427 | 0.216
9 | NCI-H441 | 0.597
10 | NCI-H661 | 0.326
11 | NCI-H1734 | 0.28
12 | NCI-H460 | 0.614
13 | NCI-H2347 | 0.476
14 | SK-LU-1 | 0.359
15 | NCI-H1395 | 0.723
16 | 201T | 0.927
17 | NCI-H1915 | 0.407
18 | HCC-827 | 0.4

Row | Cell Line | relative viability
19 | LXF-289 | 0.17
20 | NCI-H23 | 0.325
21 | NCI-H647 | 0.29
22 | CAL-12T | 0.307
23 | NCI-H1651 | 0.696
24 | EPLC-272H | 0.262
25 | NCI-H2228 | 0.319
26 | NCI-H1355 | 0.538
27 | NCI-H3122 | 0.363
28 | NCI-H1437 | 0.411
29 | NCI-H1755 | 0.587
30 | NCI-H2023 | 0.352
31 | HCC-15 | 0.493
32 | NCI-H1793 | 0.353
33 | PC-14 | 0.634
34 | EKVX | 0.422

Same assay, conditions: first compound 0.253 µM

Row | Cell Line | relative viability
35 | BEN | 0.429
36 | HARA | 0.135
37 | NCI-H322M | 0.494
38 | LCLC-97TM1 | 0.189
39 | NCI-H2009 | 0.72
40 | A-427 | 0.221
41 | NCI-H441 | 0.561
42 | NCI-H661 | 0.358
43 | NCI-H1734 | 0.27
44 | NCI-H460 | 0.396
45 | NCI-H2347 | 0.599
46 | SK-LU-1 | 0.347
47 | NCI-H1395 | 0.831
48 | 201T | 0.914
49 | NCI-H1915 | 0.42
50 | HCC-827 | 0.394

Row | Cell Line | relative viability
51 | LXF-289 | 0.173
52 | NCI-H23 | 0.399
53 | NCI-H647 | 0.244
54 | CAL-12T | 0.306
55 | NCI-H1651 | 0.737
56 | EPLC-272H | 0.193
57 | NCI-H2228 | 0.221
58 | NCI-H1355 | 0.606
59 | NCI-H3122 | 0.401
60 | NCI-H1437 | 0.443
61 | NCI-H1755 | 0.522
62 | NCI-H2023 | 0.343
63 | HCC-15 | 0.463
64 | NCI-H1793 | 0.415
65 | PC-14 | 0.542
66 | EKVX | 0.373

Same assay, conditions: first compound 0.8 µM

Row | Cell Line | relative viability
67 | BEN | 0.515
68 | HARA | 0.104
69 | NCI-H322M | 0.466
70 | LCLC-97TM1 | 0.184
71 | NCI-H2009 | 0.728
72 | A-427 | 0.215
73 | NCI-H441 | 0.623
74 | NCI-H661 | 0.372
75 | NCI-H1734 | 0.246
76 | NCI-H460 | 0.493
77 | NCI-H2347 | 0.497
78 | SK-LU-1 | 0.364
79 | NCI-H1395 | 0.735
80 | 201T | 0.893
81 | NCI-H1915 | 0.438
82 | HCC-827 | 0.388

Row | Cell Line | relative viability
83 | LXF-289 | 0.201
84 | NCI-H23 | 0.414
85 | NCI-H647 | 0.21
86 | CAL-12T | 0.303
87 | NCI-H1651 | 0.643
88 | EPLC-272H | 0.254
89 | NCI-H2228 | 0.302
90 | NCI-H1355 | 0.601
91 | NCI-H3122 | 0.394
92 | NCI-H1437 | 0.405
93 | NCI-H1755 | 0.607
94 | NCI-H2023 | 0.355
95 | HCC-15 | 0.342
96 | NCI-H1793 | 0.329
97 | PC-14 | 0.611
98 | EKVX | 0.361

Same assay, conditions: first compound 2.53 µM

Row | Cell Line | relative viability
99 | BEN | 0.474
100 | NCI-H322M | 0.467
101 | LCLC-97TM1 | 0.196
102 | NCI-H2009 | 0.735
103 | A-427 | 0.206
104 | NCI-H441 | 0.624
105 | NCI-H661 | 0.346
106 | NCI-H1734 | 0.247
107 | NCI-H460 | 0.336
108 | NCI-H2347 | 0.657
109 | SK-LU-1 | 0.341
110 | NCI-H1395 | 0.728
111 | 201T | 0.928
112 | NCI-H1915 | 0.429
113 | HCC-827 | 0.428
114 | LXF-289 | 0.209
115 | NCI-H23 | 0.313
116 | NCI-H647 | 0.261
117 | CAL-12T | 0.379
118 | NCI-H1651 | 0.632
119 | EPLC-272H | 0.333
120 | NCI-H2228 | 0.246
121 | NCI-H1355 | 0.526
122 | NCI-H3122 | 0.317
123 | NCI-H1437 | 0.413
124 | NCI-H1755 | 0.671
125 | NCI-H2023 | 0.297
126 | PC-14 | 0.58
127 | EKVX | 0.378

Same assay, conditions: first compound 8 µM

Row | Cell Line | relative viability
128 | BEN | 0.552
129 | HARA | 0.133
130 | NCI-H322M | 0.517
131 | LCLC-97TM1 | 0.231
132 | NCI-H2009 | 0.692
133 | A-427 | 0.182
134 | NCI-H441 | 0.583
135 | NCI-H661 | 0.355
136 | NCI-H1734 | 0.249
137 | NCI-H460 | 0.412
138 | NCI-H2347 | 0.418
139 | SK-LU-1 | 0.341
140 | NCI-H1395 | 0.774
141 | 201T | 0.828
142 | NCI-H1915 | 0.396
143 | HCC-827 | 0.433

Row | Cell Line | relative viability
144 | LXF-289 | 0.166
145 | NCI-H23 | 0.406
146 | NCI-H647 | 0.284
147 | CAL-12T | 0.301
148 | NCI-H1651 | 0.683
149 | EPLC-272H | 0.217
150 | NCI-H2228 | 0.203
151 | NCI-H1355 | 0.502
152 | NCI-H3122 | 0.42
153 | NCI-H1437 | 0.366
154 | NCI-H1755 | 0.553
155 | NCI-H2023 | 0.248
156 | HCC-15 | 0.323
157 | NCI-H1793 | 0.296
158 | PC-14 | 0.557
159 | EKVX | 0.344
